In article PMC7418496, “In Kluyveromyces lactis a Pair of Paralogous Isozymes Catalyze the First Committed Step of Leucine Biosynthesis in Either the Mitochondria or the Cytosol” (Frontiers in Microbiology, 2020):

Experiments:
KlLeu4 [1] = target: T1, KlLeu4 (Kluyveromyces lactis, UniProt Q6CIW1); assay: α-IPMS activity in whole cell extract, DTNB assay […] nm; assay type: biochemical; settings: 0.25 mM acetyl-CoA, 10 mM α-KIV, 50 mM phosphate pH 7.5, 140 mM KCl, 4 mM MgCl2, 30 °C
T1 construct: gene KLLA0_F23529g; native untagged enzyme in whole cell extract of the Klleu4bisΔ single mutant; homodimer

KlLeu4BIS [2] = target: T2, KlLeu4BIS (Kluyveromyces lactis, UniProt Q6CQU3); assay: initial velocity inhibition kinetics, global fit; assay type: biochemical; settings: read-out: Kis /
T2 construct: gene KLLA0_D14201g; expressed in E. coli Rosetta 2 (DE3), Ni-NTA purified (tag not described); homodimer
T2 sequence (Q6CQU3 1-583): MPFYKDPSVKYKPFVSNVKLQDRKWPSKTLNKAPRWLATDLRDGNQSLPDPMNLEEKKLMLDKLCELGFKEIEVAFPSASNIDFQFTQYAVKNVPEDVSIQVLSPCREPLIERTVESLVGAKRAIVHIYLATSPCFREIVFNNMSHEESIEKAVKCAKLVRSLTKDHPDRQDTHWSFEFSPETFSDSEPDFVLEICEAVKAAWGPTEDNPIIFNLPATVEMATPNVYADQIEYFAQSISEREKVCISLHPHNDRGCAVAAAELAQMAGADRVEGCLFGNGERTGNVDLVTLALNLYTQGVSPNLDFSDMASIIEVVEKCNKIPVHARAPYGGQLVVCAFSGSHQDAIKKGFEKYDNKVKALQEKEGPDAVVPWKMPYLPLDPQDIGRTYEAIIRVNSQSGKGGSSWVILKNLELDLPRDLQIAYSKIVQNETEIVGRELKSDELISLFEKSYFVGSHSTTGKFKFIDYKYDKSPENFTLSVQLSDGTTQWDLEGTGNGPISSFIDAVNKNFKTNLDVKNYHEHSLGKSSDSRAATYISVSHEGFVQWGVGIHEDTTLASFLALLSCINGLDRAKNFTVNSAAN
From the text: initial velocity inhibition kinetics, global fit on KlLeu4BIS

KlLeu4 [3] = target: T3, KlLeu4 (Kluyveromyces lactis, UniProt Q6CIW1); assay: initial velocity inhibition kinetics, global fit; assay type: biochemical; settings: read-out: Kis /
T3 construct: gene KLLA0_F23529g; expressed in E. coli BL21(DE3), Ni-NTA purified (tag not described); homodimer
T3 sequence (Q6CIW1 1-609): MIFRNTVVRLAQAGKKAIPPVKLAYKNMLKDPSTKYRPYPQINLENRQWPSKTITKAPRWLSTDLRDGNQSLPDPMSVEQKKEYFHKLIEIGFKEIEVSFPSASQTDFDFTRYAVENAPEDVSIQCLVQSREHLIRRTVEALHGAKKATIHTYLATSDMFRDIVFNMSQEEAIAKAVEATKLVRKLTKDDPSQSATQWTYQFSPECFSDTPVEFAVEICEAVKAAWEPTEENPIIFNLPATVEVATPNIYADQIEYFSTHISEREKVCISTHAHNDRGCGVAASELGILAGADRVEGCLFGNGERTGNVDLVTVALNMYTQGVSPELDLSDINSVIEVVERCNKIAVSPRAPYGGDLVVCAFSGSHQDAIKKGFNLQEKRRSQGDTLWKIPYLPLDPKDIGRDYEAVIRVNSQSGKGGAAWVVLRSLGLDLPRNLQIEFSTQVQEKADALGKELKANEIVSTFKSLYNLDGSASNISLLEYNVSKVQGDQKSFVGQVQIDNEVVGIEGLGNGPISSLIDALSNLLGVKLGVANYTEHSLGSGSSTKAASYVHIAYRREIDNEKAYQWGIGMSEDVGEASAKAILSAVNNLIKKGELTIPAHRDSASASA
From the text: initial velocity inhibition kinetics, global fit on KlLeu4

KlLeu4BIS [4] = target: T4, KlLeu4BIS (Kluyveromyces lactis, UniProt Q6CQU3); assay: α-IPMS activity in whole cell extract, DTNB assay […] nm; assay type: biochemical; settings: 0.25 mM acetyl-CoA, 10 mM α-KIV, 50 mM phosphate pH 7.5, 140 mM KCl, 4 mM MgCl2, 30 °C
T4 construct: gene KLLA0_D14201g; native untagged enzyme in whole cell extract of the Klleu4Δ single mutant; homodimer

KlLeu4 [5] = target: T3, KlLeu4; assay: initial velocity kinetics from kinetic global fit, ordered bi-bi; assay type: biochemical; settings: kinetic dissociation constant; varied with α-KIV 0.002–0.08 mM; 50 mM phosphate pH 7.5, 140 mM KCl, 4 mM MgCl2, 30 °C, DTNB; read-out: Kia /
From the text: initial velocity kinetics from kinetic global fit, ordered bi-bi on KlLeu4

KlLeu4BIS [6] = target: T2, KlLeu4BIS; assay: as above; assay type: biochemical; settings: kinetic dissociation constant; varied with α-KIV 0.01–0.25 mM; 50 mM phosphate pH 7.5, 140 mM KCl, 4 mM MgCl2, 30 °C, DTNB; read-out: Kia /
From the text: initial velocity kinetics from kinetic global fit, ordered bi-bi on KlLeu4BIS

[7] = substrate: CC(C)C(=O)C(=O)O; assay: initial velocity kinetics, global fit, ordered bi-bi; assay type: biochemical, Kluyveromyces lactis; settings: acetyl-CoA co-varied 0.002–0.1 mM, 50 mM phosphate pH 7.5, 140 mM KCl, 4 mM MgCl2, 30 °C, DTNB
From the text: (§1) initial velocity kinetics, global fit, ordered bi-bi on KlLeu4

[8] = substrate: CC(=O)SCCNC(=O)CCNC(=O)[C@H](O)C(C)(C)COP(=O)(O)OP(=O)(O)OC[C@H]1O[C@@H](n2cnc3c(N)ncnc32)[C@H](O)[C@@H]1OP(=O)(O)O; assay: as above; assay type: biochemical, Kluyveromyces lactis; settings: α-KIV co-varied 0.002–0.08 mM, 50 mM phosphate pH 7.5, 140 mM KCl, 4 mM MgCl2, 30 °C, DTNB
From the text: as §1

[9] = substrate: CC(C)C(=O)C(=O)O; assay: as above; assay type: biochemical, Kluyveromyces lactis; settings: acetyl-CoA co-varied 0.008–0.1 mM, 50 mM phosphate pH 7.5, 140 mM KCl, 4 mM MgCl2, 30 °C, DTNB
From the text: (§2) initial velocity kinetics, global fit, ordered bi-bi on KlLeu4BIS

[10] = substrate: CC(=O)SCCNC(=O)CCNC(=O)[C@H](O)C(C)(C)COP(=O)(O)OP(=O)(O)OC[C@H]1O[C@@H](n2cnc3c(N)ncnc32)[C@H](O)[C@@H]1OP(=O)(O)O; assay: as above; assay type: biochemical, Kluyveromyces lactis; settings: α-KIV co-varied 0.01–0.25 mM, 50 mM phosphate pH 7.5, 140 mM KCl, 4 mM MgCl2, 30 °C, DTNB
From the text: as §2

Molecule: CC(C)C[C@H](N)C(=O)O [leucine]
- IC50 (KlLeu4 [1]): 20 µM
- Ki (KlLeu4BIS [2]): 31 ± 8 µM
- Ki (KlLeu4 [3]): 34 ± 11 µM
- IC50 (KlLeu4BIS [4]): 37 µM

Molecule: CC(=O)SCCNC(=O)CCNC(=O)[C@H](O)C(C)(C)COP(=O)(O)OP(=O)(O)OC[C@H]1O[C@@H](n2cnc3c(N)ncnc32)[C@H](O)[C@@H]1OP(=O)(O)O [acetyl coenzyme A]
- Kd (KlLeu4 [5]): 17 ± 5 µM
- Kd (KlLeu4BIS [6]): 12 ± 7 µM

B1: KlLeu4 (Kluyveromyces lactis NRRL Y-1140) (protein)
chain: MIFRNTVVRLAQAGKKAIPPVKLAYKNMLKDPSTKYRPYPQINLENRQWPSKTITKAPRWLSTDLRDGNQSLPDPMSVEQKKEYFHKLIEIGFKEIEVSFPSASQTDFDFTRYAVENAPEDVSIQCLVQSREHLIRRTVEALHGAKKATIHTYLATSDMFRDIVFNMSQEEAIAKAVEATKLVRKLTKDDPSQSATQWTYQFSPECFSDTPVEFAVEICEAVKAAWEPTEENPIIFNLPATVEVATPNIYADQIEYFSTHISEREKVCISTHAHNDRGCGVAASELGILAGADRVEGCLFGNGERTGNVDLVTVALNMYTQGVSPELDLSDINSVIEVVERCNKIAVSPRAPYGGDLVVCAFSGSHQDAIKKGFNLQEKRRSQGDTLWKIPYLPLDPKDIGRDYEAVIRVNSQSGKGGAAWVVLRSLGLDLPRNLQIEFSTQVQEKADALGKELKANEIVSTFKSLYNLDGSASNISLLEYNVSKVQGDQKSFVGQVQIDNEVVGIEGLGNGPISSLIDALSNLLGVKLGVANYTEHSLGSGSSTKAASYVHIAYRREIDNEKAYQWGIGMSEDVGEASAKAILSAVNNLIKKGELTIPAHRDSASASA
notes: expressed in E. coli BL21(DE3), Ni-NTA purified (tag not described); homodimer
- Km [7]: 25 ± 3 µM
- Km [8]: 26 ± 3 µM

B2: KlLeu4BIS (Kluyveromyces lactis NRRL Y-1140) (protein)
chain: MPFYKDPSVKYKPFVSNVKLQDRKWPSKTLNKAPRWLATDLRDGNQSLPDPMNLEEKKLMLDKLCELGFKEIEVAFPSASNIDFQFTQYAVKNVPEDVSIQVLSPCREPLIERTVESLVGAKRAIVHIYLATSPCFREIVFNNMSHEESIEKAVKCAKLVRSLTKDHPDRQDTHWSFEFSPETFSDSEPDFVLEICEAVKAAWGPTEDNPIIFNLPATVEMATPNVYADQIEYFAQSISEREKVCISLHPHNDRGCAVAAAELAQMAGADRVEGCLFGNGERTGNVDLVTLALNLYTQGVSPNLDFSDMASIIEVVEKCNKIPVHARAPYGGQLVVCAFSGSHQDAIKKGFEKYDNKVKALQEKEGPDAVVPWKMPYLPLDPQDIGRTYEAIIRVNSQSGKGGSSWVILKNLELDLPRDLQIAYSKIVQNETEIVGRELKSDELISLFEKSYFVGSHSTTGKFKFIDYKYDKSPENFTLSVQLSDGTTQWDLEGTGNGPISSFIDAVNKNFKTNLDVKNYHEHSLGKSSDSRAATYISVSHEGFVQWGVGIHEDTTLASFLALLSCINGLDRAKNFTVNSAAN
notes: expressed in E. coli Rosetta 2 (DE3), Ni-NTA purified (tag not described); homodimer
- Km [9]: 55 ± 13 µM
- Km [10]: 19 ± 5 µM
